Assay results reported in patent US7670990B2, “Fungicidal composition comprising a pyridylethylbenzamide derivative and a compound capable of inhibiting mitosis and cell division” (Bayer Cropscience S.A., priority 2004, dated 2010).

System: Erysiphe graminis f. sp. tritici
Experiment: Efficacy against Erysiphe graminis f. sp. tritici on wheat plants (preventive spray treatment)
Assay type: in vivo
Conditions: Blumeria graminis, single active, wheat sprayed at 1-leaf stage, contaminated after 24 hours, graded 7 to 14 days after contamination vs control plants
Protocol: The active ingredients tested are prepared by potter homogenisation in a mixture of acetone/tween/water. This suspension is then diluted with water to obtain the desired active material concentration.
Wheat plants (Audace variety) in starter cups, sown on 50/50 peat soil-pozzolana substrate and grown at 12° C., are treated at the 1-leaf stage (10 cm tall) by spraying with the aqueous suspension described above.
Plants, used as controls, are treated with an aqueous solution not containing the active material.
After 24 hours, the plants are contaminated by dusting them with Erysiphe graminis f. sp. tritici spores, the dusting being carried out using diseased plants.
Grading is carried out 7 to 14 days after the contamination, in comparison with the control plants.

**Q.** How did the Emax at 62.5 g/ha turn out when COC(=O)Nc1nc2ccccc2[nH]1 [Carbendazim, carbendazim] was run?
**A.** 0%

**Q.** What about the Emax at 125 g/ha of the same compound?
**A.** 16%

**Q.** Which results are given for O=C(NCCc1ncc(C(F)(F)F)cc1Cl)c1ccccc1C(F)(F)F [Compound 1, N-{2-[3-chloro-5-(trifluoromethyl)-2-pyridinyl]ethyl}-2-trifluoromethylbenzamide]?
**A.** Emax at 62.5 g/ha: 42%; Emax at 125 g/ha: 63%
